Data published in patent US12496353B2, “Synergistic effects between auristatin-based antibody drug conjugates and inhibitors of the PI3K-AKT mTOR pathway” (SEAGEN INC., priority 2010, dated 2025).
Non-standard residues stand in square brackets, D forms with d. Residues, ends and D or L forms follow the SMILES beside them. *: point of attachment. Dolaproine = CO[C@@H]([C@@H]1CCCN1)[C@@H](C)C(=O)O; Dil = CC[C@H](C)[C@H](NC)[C@@H](CC(=O)O)OC; X1 = C[C@@H](N*)[C@@H](O)c1ccccc1; NMeV = CN[C@H](C(=O)O)C(C)C

Legend:
L428 cells [1] = test: In vivo combination of cAC10-vcE and temsirolimus, B-like Hodgkin lymphoma murine xenograft; parameters: species or system NOD-SCID-gamma mice; details: for Median Days to Triple Volume: L428 xenograft, cAC10-vcE 1.0 mg/kg q4dx4 ip, temsirolimus 20 mg/kg ip
Description: To test combination treatments in B-like Hodgkin lymphoma in vivo, a murine xenograft model was used. L428 cells were implanted into NOD-SCID-gamma mice (The Jackson Laboratory) to generate tumors. Tumors were grown to an average of 90 mm^3, then sorted into groups of 7 mice. Mice were not treated, treated with temsirolimus (20 mg/kg), treated with cAC10-vcE (1.0 mg/kg), or treated with cAC10-vcE and temsirolimus. The cAC10-vcE was administered q4dx4 ip. The temsirolimus was administered q4dx4 ip or q3dx6 ip. In the combination treatment, the cAC10-vcE was dosed 2 days before temsirolimus. Tumor volume was measured periodically for 120 days post initial dosing. Data was plotted as a Kaplan-Meier plot showing rate of tumor tripling. P-values were calculated using the Log-rank test to confirm statistical significance.

L428 cells [2] = test: In vivo combination of cAC10-vcE and everolimus, B-like Hodgkin lymphoma murine xenograft; parameters: species or system NOD-SCID-gamma mice; details: for complete responses: L428 xenograft, day 61, groups of 10 mice, cAC10-vcE 1.0 mg/kg q4dx4 ip, everolimus 15 mg/kg po
Description: To test combination treatments in B-like Hodgkin lymphoma in vivo, a murine xenograft model was used. L428 cells were implanted into NOD-SCID-gamma mice (The Jackson Laboratory) to generate tumors. Tumors were grown to an average of 90 mm 3 , then sorted into groups of 10 mice. Mice were not treated, treated with everolimus (15 mg/kg), treated with cAC10 (1 mg/kg), treated with cAC10-vcE (1.0 mg/kg), treated with cAC10 and everolimus, or treated with cAC10-vcE and everolimus. The cAC10-vcE and cAC10 was administered q4dx4 ip. The everolimus was administered ql dx14 po.

Caki-1 cells = test: In vitro combination cytotoxicity (Cell Titer Glo, Chou-Talalay CI), Caki-1; assay type: cell-based; details: Caki-1 cell line; FIG. 3
Description: (§1) 786-O cells were cultured in Roswell Park Memorial Institute medium (RPMI) 1640+10% fetal bovine serum (FBS). Caki-1 cells were cultured in McCoy's 5A medium+10% FBS. Caki-2 cells were cultured in McCoy's 5A medium+2% FBS. 786-O, Caki-1, and Caki-2 cells (renal cell carcinoma cell lines) were all cultured at 37° C. with 5% CO2. L540cy cells were cultured in RPMI 1640+20% FBS. L428 cells were cultured in RPMI 1640+10% FBS. L540cy and L428 cell lines are Hodgkin lymphoma cell lines. Karpas-299 cells were cultured in RPMI 1640+10% FBS. The Karpas-299 cell line is an anaplastic large cell lymphoma cell (ALCL) line. HT cells were cultured in RPMI 1640+10% FBS. Raji 4RII cells (clone-11) were a gift from Francisco J. Hernandez-Ilizaliturri and cultured in RPMI 1640+10% FBS. HT and Raji 4RH cell lines are Non-Hodgkin lymphoma cell lines. Jeko-1 cells were cultured in RPMI-1640+10% FBS . Jeko-1 cell lines are mantle cell lymphoma cell lines.
(§2) Cells were plated in 100 μL growth media per well into black-sided clear-bottom 96-well plates. […] Cytotoxicity was measured by incubating with 100 μL Cell Titer Glo (Promega) solution for 1 hour, and then luminescence was measured on a Fusion HT plate reader (Perkin Elmer). […]
(§3) (D) is the dose of the drug. […] This is determined by the x-intercept of the median-effect plot. […] It is determined by the slope of the median-effect plot. […]

786-O cells = test: In vitro combination cytotoxicity (Cell Titer Glo, Chou-Talalay CI), 786-O; assay type: cell-based; details: for interaction with the rapalogs temsirolimus, sirolimus, and everolimus / cytotoxicity of the drug alone: 786-O cell line; for interaction with the rapalogs temsirolimus, sirolimus, and everolimus: FIG. 2; for cytotoxicity of the drug alone: single drug; for effect on the cytotoxicity of h1F6-mcF: RCC cell lines (786-O and Caki-2 named in the sentence before)
Description: as §1
Cells were plated in 100 μL growth media per well into black-sided clear-bottom 96-well plates. Next, 4× concentration working stocks of small molecule inhibitor and antibody drug conjugate were prepared, and then titrated as 2-fold serial dilutions producing 10-point dose curves. For the single drug conditions, 50 μL small molecule inhibitor or ADC or free auristatin was added to each well in quadruplicate with 50 μL of media producing a final volume of 200 μL per well. For the combination conditions, 50 μL small molecule inhibitor and 50 μL ADC or free auristatin dilution were added to the cells (overlaying the dose titrations of each drug: high to low) in quadruplicate producing a final volume of 200 μ, per well. Treated cells were incubated 96 hours at 37° C., 5% CO2. Cytotoxicity was measured by incubating with 100 μL Cell Titer Glo (Promega) solution for 1 hour, and then luminescence was measured on a Fusion HT plate reader (Perkin Elmer). Data was processed with Excel (Microsoft) and GraphPad (Prism) to produce dose response curves and calculate the fraction affected (f a) at each dose concentration. Then CalcuSyn (Biosoft) software was used to determine synergism, additivity, or antagonism for each drug combination using the median-effect equation of Chou-Talalay: D=Dm[fa/(1−fa)]^1/m Median-effect equation
(D) is the dose of the drug. (Dm) is the median-effect dose signifying the potency. This is determined by the x-intercept of the median-effect plot. (fa) is the fraction affected by the dose. (fu) is the fraction unaffected, (1−fa). (m) is an exponent signifying the sigmoidicity (shape) of the dose-effect curve. It is determined by the slope of the median-effect plot. The linear correlation coefficient “r” should be greater than or equal to 0.90. The drug concentration units are arbitrary.
Combination index (CI) values <0.9 indicate synergism, CI values 0.9-1.1 indicate additivity, and CI values >1.1 indicate antagonism.
Each combination study was repeated on separate days a total of n=3 times unless otherwise noted, and the mean combination index value reported with standard error of the mean (sem).

Caki-2 cells = test: In vitro combination cytotoxicity (Cell Titer Glo, Chou-Talalay CI), Caki-2; assay type: cell-based; details: Caki-2 cell line; single drug
Description: as §1, §2, §3

HT cells = test: In vitro combination cytotoxicity (Cell Titer Glo, Chou-Talalay CI), HT; assay type: cell-based; details: HT cell line
Description: as §1, §2, §3

cAC10-vcE: vc-MMAE (mc-vc-MMAE) antibody drug conjugate wherein the antibody is a chimeric AC10 (anti-CD30) antibody
interaction with temsirolimus in delaying tumor growth in vivo (L428 cells [1]; B-like HL murine xenograft model, FIG. 5): synergistic | Median Days to Triple Volume (L428 cells [1]): 52 days | interaction with everolimus in delaying tumor growth in vivo (L428 cells [2]; B-like HL murine xenograft model, FIG. 6): synergistic | complete responses (L428 cells [2]): no complete responses

CO[C@H]1C[C@@H]2CC[C@@H](C)[C@@](O)(O2)C(=O)C(=O)N2CCCC[C@H]2C(=O)O[C@H]([C@H](C)C[C@@H]2CC[C@@H](OCCO)[C@H](OC)C2)CC(=O)[C@H](C)/C=C(\C)[C@@H](O)[C@@H](OC)C(=O)[C@H](C)C[C@H](C)/C=C/C=C/C=C/1C [everolimus]
complete responses (L428 cells [2]): no complete responses

CC[C@H](C)[C@@H]([C@@H](CC(=O)N1CCC[C@H]1[C@H](OC)[C@@H](C)C(=O)N[C@H](C)[C@@H](O)c1ccccc1)OC)N(C)C(=O)[C@@H](NC(=O)[C@@H](NC)C(C)C)C(C)C [MMAE, monomethyl auristatin E] (H-[NMeV]V[Dil][Dolaproine]-X1)
interaction with the rapalogs temsirolimus and sirolimus (Caki-1 cells): synergistic | interaction with the rapalogs temsirolimus, sirolimus, and everolimus (786-O cells): synergistic

CO[C@H]1C[C@@H]2CC[C@@H](C)[C@@](O)(O2)C(=O)C(=O)N2CCCC[C@H]2C(=O)O[C@H]([C@H](C)C[C@@H]2CC[C@@H](OC(=O)C(C)(CO)CO)[C@H](OC)C2)CC(=O)[C@H](C)/C=C(\C)[C@@H](O)[C@@H](OC)C(=O)[C@H](C)C[C@H](C)/C=C/C=C/C=C/1C [temsirolimus]
Median Days to Triple Volume (L428 cells [1]): 56 days | cytotoxicity of the drug alone (Caki-2 cells): not potent cytotoxic drugs except in the Caki-2 cell line grown in media with low FBS | cytotoxicity of the drug alone (786-O cells): not potent cytotoxic drugs | effect on the cytotoxicity of h1F6-mcF (786-O cells): potentiate the cytotoxicity of h1F6-mcF

CO[C@H]1C[C@@H]2CC[C@@H](C)[C@@](O)(O2)C(=O)C(=O)N2CCCC[C@H]2C(=O)O[C@H]([C@H](C)C[C@@H]2CC[C@@H](O)[C@H](OC)C2)CC(=O)[C@H](C)/C=C(\C)[C@@H](O)[C@@H](OC)C(=O)[C@H](C)C[C@H](C)/C=C/C=C/C=C/1C [sirolimus, rapamycin]
cytotoxicity of the drug alone (Caki-2 cells): not potent cytotoxic drugs except in the Caki-2 cell line grown in media with low FBS | cytotoxicity of the drug alone (786-O cells): not potent cytotoxic drugs | effect on the cytotoxicity of h1F6-mcF (786-O cells): potentiate the cytotoxicity of h1F6-mcF

B1: h1F6-mcF (conjugate, chains of the INN, looked up)
VH: QVQLVQSGAEVKKPGASVKVSCKASGYTFTNYGMNWVRQAPGQGLKWMGWINTYTGEPTYADAFKGRVTMTRDTSISTAYMELSRLRSDDTAVYYCARDYGDYGMDYWGQGTTVTVSS
VL: DIVMTQSPDSLAVSLGERATINCRASKSVSTSGYSFMHWYQQKPGQPPKLLIYLASNLESGVPDRFSGSGSGTDFTLTISSLQAEDVAVYYCQHSREVPWTFGQGTKVEIK
modifications: maleimidocaproyl-MMAF (mcF) drug conjugate
interaction with the rapalogs temsirolimus and sirolimus (Caki-1 cells): synergistic | interaction with the rapalogs temsirolimus, sirolimus, and everolimus (786-O cells): synergistic

B2: hBU12-mcF (conjugate, chains of the INN, looked up)
VH: QVQLQESGPGLVKPSQTLSLTCTVSGGSISTSGMGVGWIRQHPGKGLEWIGHIWWDDDKRYNPALKSRVTISVDTSKNQFSLKLSSVTAADTAVYYCARMELWSYYFDYWGQGTLVTVSS
VL: EIVLTQSPATLSLSPGERATLSCSASSSVSYMHWYQQKPGQAPRLLIYDTSKLASGIPARFSGSGSGTDFTLTISSLEPEDVAVYYCFQGSVYPFTFGQGTKLEIK
modifications: maleimidocaproyl-MMAF (mcF) drug conjugate
interaction with the rapalogs temsirolimus and sirolimus (HT cells): synergistic
